Experimental data reported in patent publication US12697353B2, “Compositions comprising cinnamaldehyde and zinc and methods of using such compositions” (SOCIÉTÉ DES PRODUITS NESTLÉ S.A., priority 2015, dated 2026).

Experiments:
[1] = nose temperature after ingestion in human subjects; assay type: in vivo; details: fifteen minutes following ingestion, FIG. 7
Experimental: The nose temperature of the subjects was analyzed over the fifteen minutes following ingestion of the various compounds.

[2] = molecular target: T1, hTRPA1 expressed in CHO cells (Homo sapiens, UniProt O75762); assay: in vitro activity of hTRPA1 expressed in CHO cells, intracellular calcium concentration with a fluorescent dye; assay type: cell-based; set-up: dose or concentration left out as unconfirmed; details: according to a dose-response curve
T1 construct: expressed in transfected cells; host or cells: CHO cells

[3] = energy expenditure after ingestion in human subjects; assay type: in vivo
Experimental: Human subjects were administered placebo, a cooling flavor, capsaicin, or cinnamaldehyde. The energy expenditure was measured over the eighty minutes following ingestion. […] The increased sympathetic activity identified by measuring the facial temperature (increased blood flow on the chin) might explain the increased energy expenditure measured by indirect calorimetry.

[4] = postprandial fat oxidation after ingestion in human subjects; assay type: in vivo
Experimental: The postprandial fat oxidation was measured over the 90 minutes following ingestion of the various compounds.

[5] = chin temperature after ingestion in human subjects; assay type: in vivo; details: eighty minutes following ingestion, FIG. 8
Experimental: The chin temperature of the subjects was measured over the eighty minutes following ingestion of the various compounds.

[6] = insulin sensitivity in mice with chronic ingestion of cinnamaldehyde in a high fat diet; assay type: in vivo; details: mice chronically fed a high fat diet containing 0.2 wt % cinnamaldehyde, FIG. 11
Excerpt: The composition can thereby reduce glycemia.

[7] = molecular target: TRPA1 (Homo sapiens, UniProt O75762); details: read-out: EC50 of TRPA1 activation; cited from earlier work
[8] = at a flavoring level judged significantly less intense than capsaicin

T1 sequence (O75762 whole entry): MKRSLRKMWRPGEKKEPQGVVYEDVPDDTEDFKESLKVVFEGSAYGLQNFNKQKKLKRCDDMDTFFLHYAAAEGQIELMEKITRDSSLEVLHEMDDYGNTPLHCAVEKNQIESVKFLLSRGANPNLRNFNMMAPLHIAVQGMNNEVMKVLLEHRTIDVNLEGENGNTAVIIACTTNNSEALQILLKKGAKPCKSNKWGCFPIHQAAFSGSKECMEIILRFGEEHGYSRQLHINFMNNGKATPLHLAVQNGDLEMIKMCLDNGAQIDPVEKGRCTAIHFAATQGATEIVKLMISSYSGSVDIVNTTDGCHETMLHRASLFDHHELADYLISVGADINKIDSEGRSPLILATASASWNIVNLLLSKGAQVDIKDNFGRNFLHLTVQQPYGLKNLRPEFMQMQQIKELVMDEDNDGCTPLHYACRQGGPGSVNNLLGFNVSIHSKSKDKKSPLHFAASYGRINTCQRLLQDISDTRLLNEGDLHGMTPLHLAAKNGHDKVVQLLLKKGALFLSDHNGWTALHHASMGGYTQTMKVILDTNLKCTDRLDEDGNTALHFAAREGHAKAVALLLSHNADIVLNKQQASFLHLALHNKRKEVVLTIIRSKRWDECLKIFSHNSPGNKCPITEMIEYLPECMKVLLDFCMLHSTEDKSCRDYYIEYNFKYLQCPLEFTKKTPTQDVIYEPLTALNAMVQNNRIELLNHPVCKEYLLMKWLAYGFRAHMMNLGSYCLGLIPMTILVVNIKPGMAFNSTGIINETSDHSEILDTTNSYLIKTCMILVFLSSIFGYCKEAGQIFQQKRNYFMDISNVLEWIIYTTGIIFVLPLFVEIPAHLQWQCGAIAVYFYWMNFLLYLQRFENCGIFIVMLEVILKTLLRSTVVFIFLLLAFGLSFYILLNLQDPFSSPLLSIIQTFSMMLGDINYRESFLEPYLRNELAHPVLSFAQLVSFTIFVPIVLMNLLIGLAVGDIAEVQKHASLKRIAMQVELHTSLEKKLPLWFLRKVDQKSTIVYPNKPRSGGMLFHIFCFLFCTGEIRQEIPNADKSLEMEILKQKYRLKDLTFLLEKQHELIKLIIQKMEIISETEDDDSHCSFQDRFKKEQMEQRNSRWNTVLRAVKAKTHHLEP
Chain of TRPA1 (O75762 whole entry, species assumed): as the sequence (O75762 whole entry) above

Compound	nose temperature [1]	efficacy on hTRPA1 of the positive control C+ [2]	impact on energy expenditure and sympathetic nervous system activity compared to capsaicin [3, 8]	energy expenditure compared to placebo ([3]; human subjects, eighty minutes following ingestion, time course and AUC, FIGS. 3 and 4)	effect on fat oxidation compared to capsaicin [4, 8]	postprandial fat oxidation compared to placebo ([4]; human subjects, 90 minutes following ingestion, time course and AUC, FIGS. 5 and 6)	chin temperature relative to baseline [5]	insulin sensitivity relative to mice fed the same high fat diet without cinnamaldehyde [6]	EC50 [7] [µM]
COc1cc(CNC(=O)CCCC/C=C/C(C)C)ccc1O [capsaicin, reference compound]	increase nose temperatures	–	–	–	–	–	–	–	–
O=CC=Cc1ccccc1 [cinnamaldehyde]	increase nose temperatures	maximum efficacy	significantly higher impact	increased	equivalent effect	maintained at higher levels	increases chin temperature for a prolonged time	improved insulin sensitivity	~10
